Assay [1] has as its target human FPR2 (Homo sapiens (Human), UniProt P25090). Description: FPR2 cyclic adenosine monophosphate (cAMP) assay. Particulars: CHO cells overexpressing human FPR2; forskolin 5 µM; inhibition of cAMP production; read-out: hFPR2 cAMP2 EC50. The class given is cell-based. The text has this: (§1) N-formyl peptide receptors (FPRs) are a family of chemo attractant receptors that facilitate leukocyte response during inflammation. FPRs belong to the seven-transmembrane G protein-coupled receptor superfamily and are linked to inhibitory G-proteins (Gi). Three family members (FPR1, FPR2 and FPR3) have been identified in humans and are predominantly found in myeloid cells with varied distribution and have also been reported in multiple organs and tissues. After agonist binding, the FPRs activate a multitude of physiological pathways, such as intra cellular signaling transduction, Ca^2+ mobilization and transcription. The family interacts with a diverse set of ligands that includes proteins, polypeptides and fatty acid metabolites which activate both pro-inflammatory and pro-resolution downstream responses. FPR2 and FPR1 Cyclic Adenosine Monophosphate (cAMP) Assays were used to measure the activity of the compounds in this patent.
(§2) FPR2 and FPR1 Cyclic Adenosine Monophosphate (cAMP) Assays. A mixture of forskolin (5 µM final for FPR2 or 10 µM final for FPR1) and IBMX (200 µM final) were added to 384-well Proxiplates (Perkin-Elmer) pre-dotted with test compounds in DMSO (1% final) at final concentrations in the range of 0.020 nM to 100 µM. Chinese Hamster Ovary cells (CHO) overexpressing human FPR1 or human FPR2 receptors were cultured in F-12 (Ham’s) medium supplemented with 10% qualified FBS, 250 µg/ml zeocin and 300 µg/ml hygromycin (Life Technologies). Reactions were initiated by adding 2,000 human FPR2 cells per well or 4,000 human FPR1 cells per well in Dulbecco’s PBS (with calcium and magnesium) (Life Technologies) supplemented with 0.1% BSA (Perkin-Elmer). The reaction mixtures were incubated for 30 min at room temperature. The level of intracellular cAMP was determined using the HTRF HiRange cAMP assay reagent kit (Cisbio) according to manufacturer’s instruction. Solutions of cryptate conjugated anti-cAMP and d2 flurorophore-labelled cAMP were made in a supplied lysis buffer separately. Upon completion of the reaction, the cells were lysed with equal volume of the d2-cAMP solution and anti-cAMP solution. After a 1-h room temperature incubation, time-resolved fluorescence intensity was measured using the Envision (Perkin-Elmer) at 400 nm excitation and dual emission at 590 nm and 665 nm. A calibration curve was constructed with an external cAMP standard at concentrations ranging from 1 µM to 0.1 pM by plotting the fluorescent intensity ratio from 665 nm emission to the intensity from the 590 nm emission against cAMP concentrations. The potency and activity of a compound to inhibit cAMP production was then determined by fitting to a 4-parametric logistic equation from a plot of cAMP level versus compound concentrations.

Assay [2] has as its target human FPR1 (Homo sapiens (Human), UniProt P21462). Description: FPR1 cyclic adenosine monophosphate (cAMP) assay. Format: cell-based. Particulars: CHO cells overexpressing human FPR1; forskolin 10 µM; inhibition of cAMP production; read-out: hFPR1 cAMP EC50.
Excerpt: as §1
as §2, with “After a 1-h room temperature incubation, time-resolved fluorescence intensity was measured using the Envision (Perkin-Elmer) at 400 nm excitation and dual emission at 590 nm and 665 nm. A calibration curve was constructed with an external cAMP standard at concentrations ranging from 1 µM to 0.1 pM by plotting the fluorescent intensity ratio from 665 nm emission to the intensity from the 590 nm emission against cAMP concentrations.” left out

SMILES strings stand for the structures.

The text below walks through data of patent US20230348426A1, “OXOPYRROLIDINE FPR2 AGONISTS” (Bristol-Myers Squibb Company, priority 2020, published 2023).

human FPR2, sequence (P25090 whole entry): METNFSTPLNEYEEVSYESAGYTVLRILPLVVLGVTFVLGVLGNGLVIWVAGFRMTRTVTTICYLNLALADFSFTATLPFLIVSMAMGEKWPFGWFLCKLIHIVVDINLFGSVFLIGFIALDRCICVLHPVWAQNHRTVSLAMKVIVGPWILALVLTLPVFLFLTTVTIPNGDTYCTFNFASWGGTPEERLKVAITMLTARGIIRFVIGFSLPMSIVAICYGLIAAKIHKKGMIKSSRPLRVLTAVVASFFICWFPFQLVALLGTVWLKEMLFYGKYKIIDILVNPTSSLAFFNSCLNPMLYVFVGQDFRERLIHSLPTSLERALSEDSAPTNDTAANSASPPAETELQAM
human FPR1, sequence (P21462 whole entry): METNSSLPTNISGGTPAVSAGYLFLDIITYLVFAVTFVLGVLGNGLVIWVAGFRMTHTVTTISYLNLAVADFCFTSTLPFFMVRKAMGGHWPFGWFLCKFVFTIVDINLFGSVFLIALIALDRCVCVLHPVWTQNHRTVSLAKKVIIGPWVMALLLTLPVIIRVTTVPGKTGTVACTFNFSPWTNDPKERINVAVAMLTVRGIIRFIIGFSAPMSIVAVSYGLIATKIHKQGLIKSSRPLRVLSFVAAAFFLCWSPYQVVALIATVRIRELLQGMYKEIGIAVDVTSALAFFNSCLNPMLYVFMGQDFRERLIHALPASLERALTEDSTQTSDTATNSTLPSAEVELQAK

As to `COc1cc(F)c([C@@H]2CN(c3ccccc3P(C)(C)=O)C(=O)[C@H]2NC(=O)c2ccc(OC(F)F)cc2)c(F)c1` [Example 31], the 50% effective concentration (EC50) in assay [1] was 10 nM; in assay [2], 150 nM.
For `COc1ccnc(N2C[C@@H](c3c(F)cc(OC)cc3F)[C@H](NC(=O)c3ccc(OC(F)F)cc3)C2=O)c1` [Example 32], the EC50 is 18 nM in assay [1] and 960 nM in assay [2].
Taken in the same sequence, the figures for `COc1cc(F)c([C@@H]2CN(c3ncccc3F)C(=O)[C@H]2NC(=O)c2ccc(OC(F)F)cc2)c(F)c1` [Example 33] were 5 nM and 1610 nM.
With `COc1cc(F)c([C@@H]2CN(c3cccn(C)c3=O)C(=O)[C@H]2NC(=O)c2ccc(OC(F)F)cc2)c(F)c1` [Example 34], the EC50 came to 3.8 nM in assay [1] and 300 nM in assay [2].
For the compound `COc1cc(N2CCN(C)CC2)nc(N2C[C@@H](c3c(F)cc(OC)cc3F)[C@H](NC(=O)c3ccc(OC(F)F)cc3)C2=O)c1` [Example 35], the results for the EC50 in assay [1] and in assay [2] were 3.1 nM and above 10000 nM, respectively.
With `COCCn1cccc(N2C[C@@H](c3c(F)cc(OC)cc3F)[C@H](NC(=O)c3ccc(OC(F)F)cc3)C2=O)c1=O` [Example 36], the values for the EC50 in assay [1] and in assay [2] were 5.5 nM and 30 nM, respectively.
For `COCCn1cccc(N2C[C@@H](c3c(F)cc(OC)cc3F)[C@H](NC(=O)c3ccc(OC(F)(F)F)cc3)C2=O)c1=O` [Example 37], the EC50 is 8.9 nM in assay [1] and 16 nM in assay [2].
Turning to `CCn1cccc(N2C[C@@H](c3c(F)cc(OC)cc3F)[C@H](NC(=O)c3ccc(OC(F)F)cc3)C2=O)c1=O` [Example 38], the EC50 amounted to 5.1 nM in assay [1] and 18 nM in assay [2].
For `COc1cc(N2C[C@@H](c3c(F)cc(OC)cc3F)[C@H](NC(=O)c3ccc(Cl)cc3)C2=O)nc(N2C[C@@H]3C[C@H]2CN3C)c1` [Example 40], the concentration for a half-maximal effect (EC50) in assay [1] was determined as 0.6 nM; in assay [2] it was 2600 nM.
On to `COCC(CN)n1cccc(N2C[C@@H](c3c(F)cc(OC)cc3F)[C@H](NC(=O)c3ccc(OC(F)F)cc3)C2=O)c1=O` (stereo partly drawn) [Example 41], for which the figures for the half-maximal effective concentration (EC50) in assay [1] and in assay [2] were 0.6 nM and 110 nM, respectively.
As to `COc1cc(F)c([C@@H]2CN(c3nc(N4C[C@@H](C)N(C)[C@@H](C)C4)ccc3F)C(=O)[C@H]2NC(=O)c2ccc(OC(F)F)cc2)c(F)c1` [Example 42], the EC50 in assay [1] came to 0.7 nM; in assay [2] it was 730 nM.
On the same counts, the results for `COCC(CN)n1cccc(N2C[C@@H](c3c(F)cc(OC)cc3F)[C@H](NC(=O)c3ccc(OC(F)F)cc3)C2=O)c1=O` (stereo partly drawn) [Example 44] are 1 nM and 10 nM.
With `COc1ccc([C@@H]2CN(c3cccn(CC(F)F)c3=O)C(=O)[C@H]2NC(=O)c2ccc(OC(F)(F)F)cc2)c(F)c1` [Example 45], the results for the concentration for a half-maximal effect (EC50) in assay [1] and in assay [2] were 1 nM and 4.3 nM, respectively.
For `COc1cc(F)c([C@@H]2CN(c3nc(N4CCC4=O)ccc3F)C(=O)[C@H]2NC(=O)c2ccc(OC(F)F)cc2)c(F)c1` [Example 46], the concentration for a half-maximal effect (EC50) in assay [1] was found to be 1 nM; in assay [2], 2 nM.
Taken in the same sequence, the figures for `COc1cc(F)c([C@@H]2CN(c3cccn(CC(O)C(F)(F)F)c3=O)C(=O)[C@H]2NC(=O)c2ccc(OC(F)(F)F)cc2)c(F)c1` (stereo partly drawn) [Example 47] were 1.1 nM and 150 nM.
As for `COc1cc(F)c([C@@H]2CN(c3cccc(N4C[C@@H](C)N(C)[C@@H](C)C4)n3)C(=O)[C@H]2NC(=O)c2ccc(OC(F)F)cc2)c(F)c1` [Example 48], the concentration giving a half-maximal response (EC50) came out at 1.1 nM in assay [1] and 940 nM in assay [2].
As for `COc1cc(N2C[C@@H]3C[C@H]2CN3C)nc(N2C(=O)[C@@H](NC(=O)c3ccc(Cl)cc3)[C@H](c3c(F)cc(OC)cc3F)[C@H]2C)c1` [Example 49], the concentration giving a half-maximal response (EC50) in assay [1] was 1.1 nM; in assay [2], 2000 nM.
Taken in the same sequence, the figures for `COc1cc(F)c([C@@H]2CN(c3nc(N4C[C@H]5C[C@@H]4CN5C)ccc3F)C(=O)[C@H]2NC(=O)c2ccc(OC(F)F)cc2)c(F)c1` [Example 50] were 1.2 nM and 1700 nM.
On the same counts, the results for `COc1cc(N2C[C@@H]3C[C@H]2CN3C)nc(N2C(=O)[C@@H](NC(=O)c3ccc(OC(F)F)cc3)[C@H](c3c(F)cc(OC)cc3F)[C@@H]2C)c1` [Example 51] are 1.2 nM and 5500 nM.
Turning to `COc1cc(F)c([C@@H]2CN(c3cccn(C(F)F)c3=O)C(=O)[C@H]2NC(=O)c2ccc(OC(F)F)cc2)c(F)c1` [Example 52], the values for the half-maximal effective concentration (EC50) in assay [1] and in assay [2] were 1.3 nM and 27 nM, respectively.
For `COCCn1cccc(N2C[C@@H](c3ccc(OC)cc3F)[C@H](NC(=O)c3ccc(OC(F)(F)F)cc3)C2=O)c1=O` [Example 53], the 50% effective concentration (EC50) in assay [1] was found to be 1.4 nM; in assay [2], 2.3 nM.
On the same counts, the results for `COc1cc(F)c([C@@H]2CN(c3nc(N4CCN(C)CC4)ccc3F)C(=O)[C@H]2NC(=O)c2ccc(OC(F)F)cc2)c(F)c1` [Example 54] are 1.4 nM and 820 nM.
Regarding `COc1ccc([C@@H]2CN(c3cccn(CCC(F)(F)F)c3=O)C(=O)[C@H]2NC(=O)c2ccc(OC(F)F)cc2)c(F)c1` [Example 55], the concentration giving a half-maximal response (EC50) is 1.4 nM in assay [1] and 8.6 nM in assay [2].
Taken in the same sequence, the figures for `COCCn1cccc(N2C[C@@H](c3ccc(OC)cc3F)[C@H](NC(=O)c3ccc(OC(F)(F)F)cc3)C2=O)c1=O` [Example 56] were 1.4 nM and 4 nM.
Turning to `COc1ccc([C@@H]2CN(c3c(C)ccn(CC4CC4)c3=O)C(=O)[C@H]2NC(=O)c2ccc(OC(F)(F)F)cc2)cc1` [Example 57], the concentration for a half-maximal effect (EC50) turned out to be 1.4 nM in assay [1] and 0.066 nM in assay [2].
As for `COc1cc(F)c([C@@H]2CN(c3nc(N4CCOCC4=O)ccc3F)C(=O)[C@H]2NC(=O)c2ccc(OC(F)(F)F)cc2)c(F)c1` [Example 58], the values for the EC50 in assay [1] and in assay [2] were 1.5 nM and 3.5 nM, respectively.
On the same counts, the results for `COc1ccc([C@@H]2CN(c3cccn(CC(F)F)c3=O)C(=O)[C@H]2NC(=O)c2ccc(OC(F)F)cc2)c(F)c1` [Example 59] are 1.5 nM and 6.6 nM.
For the compound `COCCn1cccc(N2C[C@@H](c3ccc(OC)cc3)[C@H](NC(=O)c3ccc(OC(F)(F)F)cc3)C2=O)c1=O` [Example 60], the EC50 in assay [1] stood at 1.6 nM; in assay [2], 2.6 nM.
As to `COc1cc(F)c([C@@H]2CN(c3nc(NC4CCOC4)ccc3F)C(=O)[C@H]2NC(=O)c2ccc(OC(F)(F)F)cc2)c(F)c1` (stereo partly drawn) [Example 62], the EC50 turned out to be 1.6 nM in assay [1] and 110 nM in assay [2].
On to `COc1ccc([C@@H]2CN(c3cccn(CCO)c3=O)C(=O)[C@H]2NC(=O)c2ccc(OC(F)(F)F)cc2)c(F)c1` [Example 63], for which the EC50 turned out to be 1.7 nM in assay [1] and 16 nM in assay [2].
In the case of `COc1ccc([C@@H]2CN(c3cccn(CCO)c3=O)C(=O)[C@H]2NC(=O)c2ccc(OC(F)(F)F)cc2)cc1` [Example 64], the 50% effective concentration (EC50) turned out to be 1.7 nM in assay [1] and 7.2 nM in assay [2].
Take `COc1cc(F)c([C@@H]2CN(c3ccnc(N4C[C@@H]5C[C@H]4CN5C)c3C(F)(F)F)C(=O)[C@H]2NC(=O)c2ccc(OC(F)F)cc2)c(F)c1` [Example 65]: the values for the 50% effective concentration (EC50) in assay [1] and in assay [2] were 1.7 nM and 180 nM, respectively.
For `COc1cc(F)c([C@@H]2CN(c3nc(N4C(=O)C5CCCC54)ccc3F)C(=O)[C@H]2NC(=O)c2ccc(OC(F)F)cc2)c(F)c1` (stereo partly drawn) [Example 66], the EC50 in assay [1] was 1.8 nM; in assay [2], 49 nM.
